According to US20200216493A1, “ANTIMICROBIAL PEPTIDES” (FERRING B.V., priority 2016, published 2020):
Converted amounts (≈) assume the structure as drawn.

Legend:
[1] = test system: S. pneumoniae (8 isolates); assay type: cell-based, Streptococcus pneumonia; settings: 20 h
Experimental: (§1) The broth microdilution susceptibility assay followed the procedure described by the Clinical and Laboratory Standards Institute (CLSI) in CLSI document M7-A10.
(§2) The following bacteria isolates were tested:
(§3) S.aureus, S.epidermidis, E.faecalis, and E.faecium colonies were grown on TSA (Tryptone Soya Agar; cat.N. P05012A -OXOID) S.pneumoniae and S.pyogenes colonies were grown on TSASB ((TSA) Agar +5% Sheep Blood; cat.N. PB5012A -OXOID). An inoculum was prepared by making a direct saline suspension of isolated colonies selected from an 18 to 24 hours agar plate incubated at 35±2 ° C. in ambient air. The suspension was adjusted to achieve a turbidity equivalent to a 0.5 McFarland turbidity standard (1 to 2 ×10^8 Colony Forming Units (CFU)) and diluted 200 fold within 15 minutes in broth. (S.aureus, S.epidermidis, E.faecalis, and E.faecium were diluted in CAMHB: Mueller Hinton Broth 2, Cation-Adjusted (cat. N. 90922 Fluka); S.pneumoniae and S.pyogenes were diluted in CAMHB +2.5% lysed horse blood. All broth contained 0.002% polysorbate 80.
(§4) 96-well plates were prepared containing 1 μL of the test compound (at 100× desired test concentration in 100% DMSO); compounds were tested at 8 final concentrations, i.e. 16 μg/mL, 8 μg/mL, 4 μg/mL, 2 μg/mL, 1 μg/mL, 0.5 μg/mL, 0.25 μg/mL, and 0.125 μg/mL. 100 μL of the broth dilution was dispensed in each well plate to have a final bacterial concentration in plate of ˜5×10^5 CFU/mL. The plates were incubated at 35±2° C. in ambient air for 20 hours.

[2] = test system: S. epidermidis (5 isolates); assay type: cell-based, Staphylococcus epidermidis; settings: 20 h
Experimental: as §1, §2, §3, §4

E.coli = assay type: cell-based, Escherichia coli; settings: for MIC ratio Coli/Staph: ratio of E. coli MIC to S. aureus MIC
E. faecium (3 isolates) = assay type: cell-based, Enterococcus faecium; settings: 20 h
Experimental: as §1, §2, §3, §4

S. aureus (14 isolates) = assay type: cell-based, Staphylococcus aureus; settings: 20 h
Experimental: as §1, §2, §3, §4

in vitro = assay type: cell-based; settings: human, HepG2 cells
Experimental: Compounds were tested for cytotoxicity to a mammalian cell line HepG2 (Human hepatocyte carcinoma from ECACC (85011430)). Hep G2 cells were seeded into 96-well plates, 7500 cells/well in 100 μl medium (Minimum Essential Medium (Gibco 21090) supplemented with 2 mM L-Glutamine, 1% non-essential amino acids and 10% fetal bovine serum) and incubated for 20 hours at 37° C., 5% CO2. 100 μL of fresh medium containing a test compound or DMSO (for control) at 2× final concentration were added and incubated for 48 hours at 37° C., 5% CO2. The final concentration of DMSO in plate was 1%. At the end of this incubation, 20 μl MTT (Thiazolyl Blue Tetrazolium Bromide) solution 5 mg/ml in H2O (0.5 mg/ml final in well) was added to all wells. Cells were incubated with MTT for 4 hours at 37° C., 5% CO2. After incubation, medium containing MTT was removed; 200 μl of DMSO was added in each well and plates were put on a shaker for 5 minutes. Absorbance was read on a SpectraMax plate reader at 570 nm. Specific absorbance (Specific A570) was calculated by subtracting the mean absorbance values of the blank wells (no HepG2 cells) from each well. Control values were determined from wells containing cells and treated with medium+1% DMSO only (no test compound). % viability was calculated as:
(Specific A570test compound/Specific A570control)×100.

E. faecalis (5 isolates) = assay type: cell-based, Enterococcus faecalis; settings: 20 h
Experimental: as §1, §2, §3, §4

S. pyogenes (2 isolates) = assay type: cell-based, Streptococcus pyogenes; settings: 20 h
Experimental: as §1, §2, §3, §4

S.aureus = assay type: cell-based, Staphylococcus aureus
Method in brief: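 Broth microdilution in Mueller-Hinton broth, ~5×10^5 cfu/mL inoculum, twofold compound dilutions in duplicate, 16–20 h at 37 °C with shaking. MIC (μg/mL) is the lowest concentration giving OD600 <0.08.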

| S. pneumoniae (8) MIC90 [1] | S. epidermidis (MIC90) (5) [2] | MIC E. coli (E.coli) | MIC ratio Coli/Staph (E.coli) | E. faecium (3) MIC90 (E. faecium (3 isolates)) | S. Aureus (14) MIC90 (S. aureus (14 isolates)) | MIC B. fragilis (B. fragilis) | E. faecalis (5) MIC90 (E. faecalis (5 isolates)) | S. pyogenes (2) MIC90 (S. pyogenes (2 isolates)) | MIC C. difficile (C. difficile) | MIC S. aureus (S.aureus) | Compound | viability at 48 h, 100 µM (in vitro) |
| --- | --- | --- | --- | --- | --- | --- | --- | --- | --- | --- | --- | --- |
| ≤0.12 µg/mL | ≤0.12 µg/mL | >16 µg/mL | >530 | 0.5 µg/mL | ≤0.12 µg/mL | >32 µg/mL | 1 µg/mL | ≤0.12 µg/mL | 0.06 to 0.12 µg/mL | 0.06 µg/mL (≈ 0.0466 µM) | CC[C@H](C)[C@H](NC(=O)[C@@H](Cc1ccc(OC)cc1)NC)C(=O)N[C@@H](CO)C(=O)N[C@H](CCC(N)=O)C(=O)N[C@@H](C(=O)N[C@H](C(=O)N[C@@H](CO)C(=O)N[C@H]1C(=O)N[C@@H](C)C(=O)N[C@@H](CCCCNC(=N)N)C(=O)N[C@@H]([C@@H](C)CC)C(=O)O[C@H]1C)[C@@H](C)CC)[C@@H](C)CC [Compound 74, H-D-MeTyr(Me)-Ile-Ser-D-Gln-D-aIle-Ile-Ser-c(D-Thr-Ala-Har-Ile)] | 136% |
| ≤0.12 µg/mL | ≤0.12 µg/mL | >16 µg/mL | >530 | ≤0.12 µg/mL | ≤0.12 µg/mL | >32 µg/mL | ≤0.12 µg/mL | ≤0.12 µg/mL | 0.015 to 0.03 µg/mL | 0.06 µg/mL (≈ 0.0459 µM) | CC[C@H](C)[C@H](NC(=O)[C@@H](Cc1ccc2ccccc2c1)NC)C(=O)N[C@@H](CO)C(=O)N[C@H](CCC(N)=O)C(=O)N[C@@H](C(=O)N[C@H](C(=O)N[C@@H](CO)C(=O)N[C@H]1C(=O)N[C@@H](C)C(=O)N[C@@H](CCCCNC(=N)N)C(=O)N[C@@H]([C@@H](C)CC)C(=O)O[C@H]1C)[C@@H](C)CC)[C@@H](C)CC [Compound 75, H-D-Me2Nal-Ile-Ser-D-Gln-D-aIle-Ile-Ser-c(D-Thr-Ala-Har-Ile)] | 119% |
